Source: patent publication US8604068B2, “Insecticidal compositions of 2-cyanobenzene sulfonamide compounds and isomeric forms thereof having improved effect” (Bayer CropScience AG, priority 2007, dated 2013)

Legend:
Assay type in all cases: in vivo
[1] = system: green peach aphid (Myzus persicae); test: Myzus persicae test (MYZUPE), ammonium salts in combination with penetration enhancers (Example C); conditions: for Kill rate/% after 7 days, +AS (1000 ppm) / Kill rate/% after 7 days, +RME (1000 ppm) / Kill rate/% after 7 days, +RME + AS (each 1000 ppm) / Kill rate/% after 7 days, a.i.: Table C2, emulsifier 1 part; for Kill rate/% after 7 days, +AS (1000 ppm): active substance 60 g/ha + ammonium sulfate 1000 ppm; for Kill rate/% after 7 days, +RME (1000 ppm): active substance 60 g/ha + rape oil methyl ester 1000 ppm; for Kill rate/% after 7 days, +RME + AS (each 1000 ppm): active substance 60 g/ha + rape oil methyl ester and ammonium sulfate; for Kill rate/% after 7 days, a.i.: active substance 60 g/ha; for Kill rate/% after 7 days, a.i. / Kill rate/% after 6 days, a.i.: no additive; for Kill rate/% after 6 days, +AS (1000 ppm) / Kill rate/% after 6 days, +RME (1000 ppm) / Kill rate/% after 6 days, +RME + AS (each 1000 ppm) / Kill rate/% after 6 days, a.i.: Table C1
Experimental: (§1) Myzus persicae—Test (MYZUPE)
(§2) For the preparation of a suitable active substance preparation, 1 part by weight of active substance is mixed with the stated quantities of solvent and emulsifier and the concentrate is diluted to the desired concentration with emulsifier-containing water. When addition of ammonium salts, penetration enhancers or ammonium salts and penetration enhancers is necessary, these are in each case pipetted into the finished preparation solution in a concentration of 1000 ppm after dilution.
Paprika plants (Capsicum annuum) which are severely infested with the green peach aphid (Myzus persicae) are treated by spraying with the active substance preparation in the desired concentration.
(§3) After the desired time, the kill rate in % is determined. Here 100% means that all the animals were killed; 0% means that no animals were killed.

[2] = system: common spider mite (Tetranychus urticae); test: Tetranychus test (OP-resistant), activity increase due to ammonium salts (Example E); conditions: sprayed bean plants; for Kill rate/% after 6 days, +AS (1000 ppm): active substance 20 ppm + ammonium sulfate 1000 ppm; for Kill rate/% after 6 days, a.i.: active substance 20 ppm, no additive
Experimental: (§4) Tetranychus-Test (OP-Resistant)
as §2, with “ammonium” for “ammonium salts, penetration enhancers or ammonium”, “salts” for “salts and penetration enhancers”
(§5) Bean plants (Phaseolus vulgaris) which are severely infested by all stages of the common spider mite (Tetranychus urticae) are treated by spraying with the active substance preparation in the desired concentration.
(§6) After the desired time, the kill rate in % is determined. here 100% means that all the spider mites were killed; 0% means that no spider mites were killed.

[3] = system: cotton aphid (Aphis gossypii); test: Aphis gossypii test (APHIGO), activity increase due to ammonium salts (Example B); conditions: sprayed cotton leaves; for Kill rate/% after 6 days, a.i.: no additive
Experimental: (§7) Aphis gossypii-Test (APHIGO)
as §2, with “ammonium” for “ammonium salts, penetration enhancers or ammonium”, “salts” for “salts and penetration enhancers”
(§8) Cotton leaves (Gossypium hirsutum) which are severely infested with the cotton aphid (Aphis gossypii) are sprayed with an active substance preparation with the desired concentration.
(§9) After the desired time, the kill rate in % is determined. Here 100% means that all the aphids were killed; 0% means that no aphids were killed.

[4] = system: common spider mite (Tetranychus urticae); test: Tetranychus test (OP-resistant), ammonium salts in combination with penetration enhancers (Example F); conditions: for Kill rate/% after 6 days, a.i.: no additive
Experimental: as §4, §2, §5, §6

[5] = system: green peach aphid (Myzus persicae); test: Myzus persicae test (MYZUPE), activity increase due to ammonium salts (Example A); conditions: sprayed paprika plants; for Kill rate/% after 6 days, a.i.: no additive
Experimental: as §1
as §2, with “ammonium” for “ammonium salts, penetration enhancers or ammonium”, “salts” for “salts and penetration enhancers”
Paprika plants (Capsicum annuum) which are severely infested by the green peach aphid (Myzus persicae) are treated by spraying with the active substance preparation in the desired concentration.
as §3

[6] = system: cotton aphid (Aphis gossypii); test: Aphis gossypii test (APHIGO), ammonium salts in combination with penetration enhancers (Example D); conditions: for Kill rate/% after 7 days, +AS (1000 ppm) / Kill rate/% after 7 days, +RME (1000 ppm) / Kill rate/% after 7 days, +RME + AS (each 1000 ppm) / Kill rate/% after 7 days, a.i.: Table D2, emulsifier 1 part; for Kill rate/% after 7 days, +AS (1000 ppm): active substance 2.4 g/ha + ammonium sulfate 1000 ppm; for Kill rate/% after 7 days, +RME (1000 ppm): active substance 2.4 g/ha + rape oil methyl ester 1000 ppm; for Kill rate/% after 7 days, +RME + AS (each 1000 ppm): active substance 2.4 g/ha + rape oil methyl ester and ammonium sulfate; for Kill rate/% after 7 days, a.i.: active substance 2.4 g/ha; for Kill rate/% after 7 days, a.i. / Kill rate/% after 6 days, a.i.: no additive; for Kill rate/% after 6 days, +AS (1000 ppm) / Kill rate/% after 6 days, +RME (1000 ppm) / Kill rate/% after 6 days, +RME + AS (each 1000 ppm) / Kill rate/% after 6 days, a.i.: Table D1
Experimental: as §7, §2, §8, §9

[7] = active substance 4 ppm + ammonium sulfate 1000 ppm
[8] = active substance 4 ppm + rape oil methyl ester 1000 ppm
[9] = active substance 4 ppm + rape oil methyl ester and ammonium sulfate
[10] = active substance 20 ppm + ammonium sulfate 1000 ppm
[11] = active substance 20 ppm + rape oil methyl ester 1000 ppm
[12] = active substance 20 ppm + rape oil methyl ester and ammonium sulfate
[13] = active substance 0.8 ppm + ammonium sulfate 1000 ppm
[14] = active substance 0.8 ppm + rape oil methyl ester 1000 ppm
[15] = active substance 0.8 ppm + rape oil methyl ester and ammonium sulfate

COc1cccc(S(=O)(=O)N(C)C)c1C#N [Example 215]
Kill rate/% after 7 days, +AS (1000 ppm) [1]: 20%
Kill rate/% after 7 days, +RME (1000 ppm) [1]: 40%
Kill rate/% after 7 days, +RME + AS (each 1000 ppm) [1]: 75%
Kill rate/% after 7 days, a.i. [1]: 0%

C=CCN(C)S(=O)(=O)c1cccc(OC)c1C#N [Example 225]
Kill rate/% after 6 days, +AS (1000 ppm) [1, 7]: 0%
Kill rate/% after 6 days, +RME (1000 ppm) [1, 8]: 5%
Kill rate/% after 6 days, +RME + AS (each 1000 ppm) [1, 9]: 35%
Kill rate/% after 6 days, a.i. ([1]; active substance 4 ppm): 0%
Kill rate/% after 6 days, +AS (1000 ppm) [2]: 80%
Kill rate/% after 6 days, a.i. [2]: 20%
Kill rate/% after 6 days, +AS (1000 ppm) [3, 10]: 75%
Kill rate/% after 6 days, a.i. ([3]; active substance 20 ppm): 35%

C#CCN1C(=N)c2c(OC)cccc2S1(=O)=O [Example 42-A]
Kill rate/% after 6 days, +AS (1000 ppm) [1, 10]: 45%
Kill rate/% after 6 days, +RME (1000 ppm) [1, 11]: 90%
Kill rate/% after 6 days, +RME + AS (each 1000 ppm) [1, 12]: 98%
Kill rate/% after 6 days, a.i. ([1]; active substance 20 ppm): 0%
Kill rate/% after 6 days, +AS (1000 ppm) [4, 13]: 30%
Kill rate/% after 6 days, +RME (1000 ppm) [4, 14]: 45%
Kill rate/% after 6 days, +RME + AS (each 1000 ppm) [4, 15]: 80%
Kill rate/% after 6 days, a.i. ([4]; active substance 0.8 ppm): 50%
Kill rate/% after 6 days, +AS (1000 ppm) [4, 7]: 50%
Kill rate/% after 6 days, +RME (1000 ppm) [4, 8]: 75%
Kill rate/% after 6 days, +RME + AS (each 1000 ppm) [4, 9]: 95%
Kill rate/% after 6 days, a.i. ([4]; active substance 4 ppm): 70%
Kill rate/% after 6 days, +AS (1000 ppm) [5, 10]: 45%
Kill rate/% after 6 days, a.i. ([5]; active substance 20 ppm): 0%
Kill rate/% after 6 days, +AS (1000 ppm) [3, 7]: 55%
Kill rate/% after 6 days, a.i. ([3]; active substance 4 ppm): 15%
Kill rate/% after 6 days, +AS (1000 ppm) [3, 10]: 98%
Kill rate/% after 6 days, a.i. ([3]; active substance 20 ppm): 30%

COc1cccc(S(=O)(=O)NCc2ccccc2)c1C#N [Example 40]
Kill rate/% after 7 days, +AS (1000 ppm) [1]: 0%
Kill rate/% after 7 days, +RME (1000 ppm) [1]: 40%
Kill rate/% after 7 days, +RME + AS (each 1000 ppm) [1]: 50%
Kill rate/% after 7 days, a.i. [1]: 0%

C#CCNS(=O)(=O)c1cccc(OC)c1C#N [Example 42]
Kill rate/% after 6 days, +AS (1000 ppm) [1, 10]: 20%
Kill rate/% after 6 days, +RME (1000 ppm) [1, 11]: 25%
Kill rate/% after 6 days, +RME + AS (each 1000 ppm) [1, 12]: 70%
Kill rate/% after 6 days, a.i. ([1]; active substance 20 ppm): 5%
Kill rate/% after 6 days, +AS (1000 ppm) ([1]; active substance 100 ppm + ammonium sulfate 1000 ppm): 80%
Kill rate/% after 6 days, +RME (1000 ppm) ([1]; active substance 100 ppm + rape oil methyl ester 1000 ppm): 99%
Kill rate/% after 6 days, +RME + AS (each 1000 ppm) ([1]; active substance 100 ppm + rape oil methyl ester and ammonium sulfate): 100%
Kill rate/% after 6 days, a.i. ([1]; active substance 100 ppm): 75%
Kill rate/% after 6 days, +AS (1000 ppm) [5, 10]: 20%
Kill rate/% after 6 days, a.i. ([5]; active substance 20 ppm): 5%

COc1cccc(S(=O)(=O)NC2CC2)c1C#N [Example 83]
Kill rate/% after 7 days, +AS (1000 ppm) [1]: 0%
Kill rate/% after 7 days, +RME (1000 ppm) [1]: 10%
Kill rate/% after 7 days, +RME + AS (each 1000 ppm) [1]: 75%
Kill rate/% after 7 days, a.i. [1]: 0%
Kill rate/% after 7 days, +AS (1000 ppm) [6]: 55%
Kill rate/% after 7 days, +RME (1000 ppm) [6]: 30%
Kill rate/% after 7 days, +RME + AS (each 1000 ppm) [6]: 85%
Kill rate/% after 7 days, a.i. [6]: 10%

COc1cccc2c1C(N)=NS2(=O)=O [Example 45-B]
Kill rate/% after 6 days, +AS (1000 ppm) [5, 7]: 60%
Kill rate/% after 6 days, a.i. ([5]; active substance 4 ppm): 35%

COc1cccc(S(=O)(=O)NC(C)C)c1C#N [Example 41]
Kill rate/% after 7 days, +AS (1000 ppm) [6]: 80%
Kill rate/% after 7 days, +RME (1000 ppm) [6]: 10%
Kill rate/% after 7 days, +RME + AS (each 1000 ppm) [6]: 93%
Kill rate/% after 7 days, a.i. [6]: 50%

C=CCNS(=O)(=O)c1cccc(OC)c1C#N [Example 44]
Kill rate/% after 6 days, +AS (1000 ppm) [1, 7]: 15%
Kill rate/% after 6 days, +RME (1000 ppm) [1, 8]: 20%
Kill rate/% after 6 days, +RME + AS (each 1000 ppm) [1, 9]: 30%
Kill rate/% after 6 days, a.i. ([1]; active substance 4 ppm): 10%
Kill rate/% after 6 days, +AS (1000 ppm) [1, 10]: 70%
Kill rate/% after 6 days, +RME (1000 ppm) [1, 11]: 85%
Kill rate/% after 6 days, +RME + AS (each 1000 ppm) [1, 12]: 98%
Kill rate/% after 6 days, a.i. ([1]; active substance 20 ppm): 85%
Kill rate/% after 6 days, +AS (1000 ppm) [6, 7]: 25%
Kill rate/% after 6 days, +RME (1000 ppm) [6, 8]: 45%
Kill rate/% after 6 days, +RME + AS (each 1000 ppm) [6, 9]: 55%
Kill rate/% after 6 days, a.i. ([6]; active substance 4 ppm): 5%
Kill rate/% after 6 days, +AS (1000 ppm) [2]: 70%
Kill rate/% after 6 days, a.i. [2]: 40%
Kill rate/% after 6 days, +AS (1000 ppm) [3, 7]: 25%
Kill rate/% after 6 days, a.i. ([3]; active substance 4 ppm): 5%

N#Cc1ccccc1S(N)(=O)=O [Example 226]
Kill rate/% after 6 days, +AS (1000 ppm) [1, 10]: 10%
Kill rate/% after 6 days, +RME (1000 ppm) [1, 11]: 25%
Kill rate/% after 6 days, +RME + AS (each 1000 ppm) [1, 12]: 50%
Kill rate/% after 6 days, a.i. ([1]; active substance 20 ppm): 10%
Kill rate/% after 6 days, +AS (1000 ppm) [6, 13]: 0%
Kill rate/% after 6 days, +RME (1000 ppm) [6, 14]: 20%
Kill rate/% after 6 days, +RME + AS (each 1000 ppm) [6, 15]: 35%
Kill rate/% after 6 days, a.i. ([6]; active substance 0.8 ppm): 0%
Kill rate/% after 6 days, +AS (1000 ppm) [6, 7]: 20%
Kill rate/% after 6 days, +RME (1000 ppm) [6, 8]: 35%
Kill rate/% after 6 days, +RME + AS (each 1000 ppm) [6, 9]: 55%
Kill rate/% after 6 days, a.i. ([6]; active substance 4 ppm): 20%
Kill rate/% after 6 days, +AS (1000 ppm) [4, 10]: 70%
Kill rate/% after 6 days, +RME (1000 ppm) [4, 11]: 60%
Kill rate/% after 6 days, +RME + AS (each 1000 ppm) [4, 12]: 90%
Kill rate/% after 6 days, a.i. ([4]; active substance 20 ppm): 50%
